According to PubChem BioAssay AID248 (DTP/NCI, 2004):
Values joined by “and” are separate entries in the source; they are usually repeats but may differ in a detail not shown here. Equal entries are not always repeated. Inconclusive results and toxic doses are left out. Rule as the data show it: active = T/C of 150% or more; inactive = T/C below 125%.

Tested on: L1210 leukemia ip in BDF1 mice, survival T/C
Assay: NCI In Vivo Anticancer Drug Screen. Data for tumor model L1210 Leukemia (intraperitoneal) in B6D2F1 (BDF1) mice
Conditions: endpoint: mean survival time, higher = longer survival
Method in brief: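 Mice bearing the transplanted tumor received compound or vehicle. Survival of the treated group was divided by that of the vehicle-treated control group to give the ratio.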

[1] = dose: 100.0 mg/kg/injection, schedule: Q01DX001 (ip), vehicle: Klucel (hydroxypropylcellulose) (HPC)
[2] = dose: 100.0 mg/kg/injection, schedule: Q01DX009 (ip), vehicle: Klucel (hydroxypropylcellulose) (HPC)
[3] = dose: 100.0 mg/kg/injection, schedule: Q04DX003 (ip), vehicle: Klucel (hydroxypropylcellulose) (HPC)
[4] = dose: 200.0 mg/kg/injection, schedule: Q01DX001 (ip), vehicle: Klucel (hydroxypropylcellulose) (HPC)
[5] = dose: 200.0 mg/kg/injection, schedule: Q01DX009 (ip), vehicle: Klucel (hydroxypropylcellulose) (HPC)
[6] = dose: 200.0 mg/kg/injection, schedule: Q04DX003 (ip), vehicle: Klucel (hydroxypropylcellulose) (HPC)
[7] = dose: 400.0 mg/kg/injection, schedule: Q01DX009 (ip), vehicle: Klucel (hydroxypropylcellulose) (HPC)
[8] = dose: 400.0 mg/kg/injection, schedule: Q04DX003 (ip), vehicle: Klucel (hydroxypropylcellulose) (HPC)
[9] = dose: 100.0 mg/kg/injection, schedule: Q01DX001 (ip), vehicle: saline
[10] = dose: 200.0 mg/kg/injection, schedule: Q01DX001 (ip), vehicle: saline
[11] = dose: 400.0 mg/kg/injection, schedule: Q01DX001 (ip), vehicle: saline
[12] = dose: 100.0 mg/kg/injection, schedule: Q04DX003 (ip), vehicle: saline
[13] = dose: 200.0 mg/kg/injection, schedule: Q04DX003 (ip), vehicle: saline
[14] = dose: 400.0 mg/kg/injection, schedule: Q04DX003 (ip), vehicle: saline
[15] = dose: 100.0 mg/kg/injection, schedule: Q04DX003 (ip), vehicle: saline with Tween-80
[16] = dose: 200.0 mg/kg/injection, schedule: Q04DX003 (ip), vehicle: saline with Tween-80

Measured: T/C

Cc1ncc(C(O)c2ccccc2)n1Cc1ccccc1 (stereo not drawn)
inactive: [1] 94 % of control | [2] 93 % of control and 107 % of control | [3] 106 % of control | [4] 100 % of control | [5] 93 % of control and 103 % of control | [6] 97 % of control | dose: 400.0 mg/kg/injection, schedule: Q01DX001 (ip), vehicle: Klucel (hydroxypropylcellulose) (HPC) 98 % of control | [7] 104 % of control and 89 % of control | [8] 99 % of control

NC(=O)c1cc(Cl)cc(N)c1Cl
inactive: dose: 100.0 mg/kg/injection, schedule: Q01DX001 (ip), vehicle: saline with Tween-80 107 % of control | dose: 200.0 mg/kg/injection, schedule: Q01DX001 (ip), vehicle: saline with Tween-80 104 % of control | dose: 400.0 mg/kg/injection, schedule: Q01DX001 (ip), vehicle: saline with Tween-80 117 % of control

O=Nc1c2cc3ccccc3[nH]c-2c2ccccc12
inactive: dose: 50.0 mg/kg/injection, schedule: Q01DX001 (ip), vehicle: Klucel (hydroxypropylcellulose) (HPC) 95 % of control | [1] 93 % of control | [4] 93 % of control

CC1(C)OC2COC3(COC(C)(C)O3)C(O)C2O1 (stereo not drawn)
inactive: dose: 100.0 mg/kg/injection, schedule: Q04DX002 (ip), vehicle: saline 96 % of control | dose: 200.0 mg/kg/injection, schedule: Q04DX002 (ip), vehicle: saline 100 % of control | dose: 400.0 mg/kg/injection, schedule: Q04DX002 (ip), vehicle: saline 104 % of control

O=NN1CCC1
inactive: [9] 97 % of control | [10] 93 % of control | [11] 93 % of control

CC(C)(C)CC(C)(C)c1ccc(OCCOc2ccc(NS(=O)(=O)c3ccc([N+](=O)[O-])cc3)cc2)cc1
inactive: [3] 91 % of control | [6] 100 % of control | [8] 91 % of control

O=C(Nc1ccc(C2=NCCN2)cc1)Nc1cc(NC(=O)Nc2ccc(C3=NCCN3)cc2)cc(C(=O)O)c1
inactive: dose: 120.0 mg/kg/injection, schedule: Q01DX Z (ip), vehicle: carboxymethylcellulose (CMC) 106 % of control | dose: 240.0 mg/kg/injection, schedule: Q01DX Z (ip), vehicle: carboxymethylcellulose (CMC) 102 % of control | dose: 250.0 mg/kg/injection, schedule: Q01DX Z (ip), vehicle: water 93 % of control | dose: 500.0 mg/kg/injection, schedule: Q01DX Z (ip), vehicle: water 94 % of control

COc1ccc2c(=O)cc(-c3ccccc3)[nH]c2c1
inactive: dose: 50.0 mg/kg/injection, schedule: Q04DX003 (ip), vehicle: saline 100 % of control | dose: 100.0 mg/kg/injection, schedule: Q01DX009 (ip), vehicle: other 122 % of control | [12] 106 % of control | dose: 200.0 mg/kg/injection, schedule: Q01DX009 (ip), vehicle: other 123 % of control | [13] 101 % of control | [14] 104 % of control

CC(C)(C)NC(=O)Nc1ccccn1
inactive: dose: 100.0 mg/kg/injection, schedule: Q01DX009 (ip), vehicle: saline with Tween-80 102 % of control and 112 % of control | dose: 100.0 mg/kg/injection, schedule: Q04DX002 (ip), vehicle: saline with Tween-80 96 % of control | [15] 97 % of control | dose: 200.0 mg/kg/injection, schedule: Q01DX009 (ip), vehicle: saline with Tween-80 112 % of control and 91 % of control | dose: 200.0 mg/kg/injection, schedule: Q04DX002 (ip), vehicle: saline with Tween-80 108 % of control and 115 % of control | [16] 115 % of control | dose: 400.0 mg/kg/injection, schedule: Q01DX009 (ip), vehicle: saline with Tween-80 104 % of control | dose: 400.0 mg/kg/injection, schedule: Q04DX002 (ip), vehicle: saline with Tween-80 94 % of control and 96 % of control

Cc1ccc(S(=O)(=O)NC(=O)NCc2cccc(Cl)c2)cc1
inactive: [2] 101 % of control | [5] 101 % of control | [7] 96 % of control

CCOC(=O)CC(C)C(Br)(C(=O)OCC)C(=O)OCC (stereo not drawn)
inactive: dose: 25.0 mg/kg/injection, schedule: Q01DX009 (ip), vehicle: water 109 % of control | dose: 50.0 mg/kg/injection, schedule: Q01DX009 (ip), vehicle: water 111 % of control | dose: 100.0 mg/kg/injection, schedule: Q01DX009 (ip), vehicle: water 100 % of control | dose: 200.0 mg/kg/injection, schedule: Q01DX009 (ip), vehicle: water 96 % of control

CCN(/N=C/c1ccc([N+](=O)[O-])o1)C(N)=O
inactive: dose: 25.0 mg/kg/injection, schedule: Q04DX002 (ip), vehicle: saline with Tween-80 100 % of control | dose: 50.0 mg/kg/injection, schedule: Q04DX002 (ip), vehicle: saline with Tween-80 103 % of control

Cn1nc(SCc2ccccc2)c(=O)n(C(c2ccccc2)c2ccccc2)c1=O
inactive: dose: 100.0 mg/kg/injection, schedule: Q01DX001 (ip), vehicle: carboxymethylcellulose (CMC) 104 % of control | dose: 200.0 mg/kg/injection, schedule: Q01DX001 (ip), vehicle: carboxymethylcellulose (CMC) 93 % of control

COc1ccc(NC(=O)Oc2ccc(Cl)cc2C)c(OC)c1
inactive: [2] 104 % of control | [5] 108 % of control | [7] 108 % of control

CC1(C)CN1Sc1ccc([N+](=O)[O-])cc1 (stereo not drawn)
inactive: dose: 25.0 mg/kg/injection, schedule: Q04DX002 (ip), vehicle: Klucel (hydroxypropylcellulose) (HPC) 107 % of control | dose: 50.0 mg/kg/injection, schedule: Q04DX002 (ip), vehicle: Klucel (hydroxypropylcellulose) (HPC) 103 % of control | dose: 100.0 mg/kg/injection, schedule: Q04DX002 (ip), vehicle: Klucel (hydroxypropylcellulose) (HPC) 96 % of control and 107 % of control

Cc1cccc(N2CCC3(CC2)C(=O)NC(=O)NC3=O)c1
inactive: [9] 94 % of control | [10] 97 % of control | [11] 100 % of control

CN(C)Cc1cc(C(C)(C)CC(C)(C)C)cc(CN(C)C)c1O
inactive: [2] 97 % of control | [5] 99 % of control

OC(c1cc(C(F)(F)F)nc2c(F)cccc12)C1CCCCN1 (stereo not drawn)
inactive: [15] 102 % of control | [16] 105 % of control | dose: 400.0 mg/kg/injection, schedule: Q04DX003 (ip), vehicle: saline with Tween-80 96 % of control

CC(C)(C)C=O
inactive: [12] 102 % of control | [13] 96 % of control | [14] 100 % of control

CN1C(=O)C(c2ccccc2)(c2ccccc2)C(Br)=C1c1ccccc1
inactive: dose: 50.0 mg/kg/injection, schedule: Q01DX001 (ip), vehicle: saline 107 % of control | [9] 91 % of control | [10] 96 % of control | [11] 102 % of control

COC(=O)/C(O)=C/C(N)=O.COC(=O)/C(O)=C/C(N)=O.[Cu]
inactive: dose: 9.37 mg/kg/injection, schedule: Q01DX001 (ip), vehicle: carboxymethylcellulose (CMC) 89 % of control | dose: 18.75 mg/kg/injection, schedule: Q01DX001 (ip), vehicle: carboxymethylcellulose (CMC) 87 % of control | dose: 37.5 mg/kg/injection, schedule: Q01DX001 (ip), vehicle: carboxymethylcellulose (CMC) 96 % of control

CONC(=O)Nc1cccc2ccccc12
inactive: dose: 75.0 mg/kg/injection, schedule: Q01DX001 (ip), vehicle: other 100 % of control | dose: 75.0 mg/kg/injection, schedule: Q04DX003 (ip), vehicle: other 97 % of control | dose: 150.0 mg/kg/injection, schedule: Q01DX001 (ip), vehicle: other 110 % of control | dose: 150.0 mg/kg/injection, schedule: Q04DX003 (ip), vehicle: other 96 % of control | dose: 300.0 mg/kg/injection, schedule: Q01DX001 (ip), vehicle: other 106 % of control | dose: 300.0 mg/kg/injection, schedule: Q04DX003 (ip), vehicle: other 100 % of control
